Measured values as given in patent US12077503B2, “Substituted cyclic amides and their use as herbicides” (FMC CORPORATION, priority 2015, dated 2024).

Assays:
Format in all cases: in vivo
[1] = test system: redroot pigweed (Amaranthus retroflexus); assay: Test G Pre-Emergence Protocol; conditions: Amaranthus retroflexus, pre-emergence, 312 h, evaluated after 13 days; for pest or weed control at 15.625 g/ha: 15.625 g ai/ha; for pest or weed control at 15.625 g/ha / pest or weed control at 250 g/ha: read-out: Pigweed, Redroot damage rating (100=total damage to plant; 0=no damage to plant); for pest or weed control at 62.5 g/ha: 62.5 g ai/ha, 100=total damage to plant, 0=no damage to plant, read-out: plant damage rating, Pigweed, Redroot; for pest or weed control at 250 g/ha: 250 g ai/ha
How it was run: (§1)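 Test compound in 0.5% Tween 20 acetone/water (50:50) was applied at three rates (15.625, 62.5, 250 g/ha) to soil sown one day earlier. After 13 days plants were scored for injury, where 0 means unaffected and 100 means completely damaged.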

[2] = test system: ivy-leaved morning glory (Ipomoea hederacea); assay: Test G Pre-Emergence Protocol; conditions: Ipomoea, pre-emergence, 312 h, evaluated after 13 days; for pest or weed control at 15.625 g/ha: 15.625 g ai/ha, read-out: Morning-glory, Ivy-leaved damage rating (100=total damage to plant; 0=no damage to plant); for pest or weed control at 62.5 g/ha: 62.5 g ai/ha, 100=total damage to plant, 0=no damage to plant, read-out: plant damage rating, Morningglory, Ivy-leaved; for pest or weed control at 250 g/ha: 250 g ai/ha, read-out: Morningglory, Ivy-leaved damage rating (100=total damage to plant; 0=no damage to plant)
How it was run: as §1

corn (Zea mays) [3] = assay: Test G Pre-Emergence Protocol; conditions: Zea mays, pre-emergence, 312 h, evaluated after 13 days; for plant injury at 15.625 g/ha: 15.625 g ai/ha; for plant injury at 15.625 g/ha / plant injury at 250 g/ha: read-out: Corn damage rating (100=total damage to plant; 0=no damage to plant); for plant injury at 62.5 g/ha: 62.5 g ai/ha, 100=total damage to plant, 0=no damage to plant, read-out: plant damage rating, Corn; for plant injury at 250 g/ha: 250 g ai/ha
How it was run: as §1

[4] = test system: giant foxtail (Setaria faberi); assay: Test G Pre-Emergence Protocol; conditions: Setaria faberi, pre-emergence, 312 h, evaluated after 13 days; for pest or weed control at 15.625 g/ha: 15.625 g ai/ha; for pest or weed control at 15.625 g/ha / pest or weed control at 250 g/ha: read-out: Foxtail, Giant damage rating (100=total damage to plant; 0=no damage to plant); for pest or weed control at 62.5 g/ha: 62.5 g ai/ha, 100=total damage to plant, 0=no damage to plant, read-out: plant damage rating, Foxtail, Giant; for pest or weed control at 250 g/ha: 250 g ai/ha
How it was run: as §1

[5] = test system: velvetleaf (Abutilon theophrasti); assay: Test G Pre-Emergence Protocol; conditions: Abutilon theophrasti, pre-emergence, 312 h, evaluated after 13 days; for pest or weed control at 15.625 g/ha: 15.625 g ai/ha; for pest or weed control at 15.625 g/ha / pest or weed control at 250 g/ha: read-out: Velvetleaf damage rating (100=total damage to plant; 0=no damage to plant); for pest or weed control at 62.5 g/ha: 62.5 g ai/ha, 100=total damage to plant, 0=no damage to plant, read-out: plant damage rating, Velvetleaf; for pest or weed control at 250 g/ha: 250 g ai/ha
How it was run: as §1

[6] = test system: barnyardgrass (Echinochloa crus-galli); assay: Test G Pre-Emergence Protocol; conditions: Echinochloa crus-galli, pre-emergence, 312 h, evaluated after 13 days; for pest or weed control at 15.625 g/ha: 15.625 g ai/ha, read-out: Barnyard grass damage rating (100=total damage to plant; 0=no damage to plant); for pest or weed control at 62.5 g/ha: 62.5 g ai/ha, 100=total damage to plant, 0=no damage to plant, read-out: plant damage rating, Barnyardgrass; for pest or weed control at 250 g/ha: 250 g ai/ha, read-out: Barnyardgrass damage rating (100=total damage to plant; 0=no damage to plant)
How it was run: as §1

[7] = test system: redroot pigweed (Amaranthus retroflexus); assay: Test G Post-Emergence Protocol; conditions: Amaranthus retroflexus, post-emergence, 312 h; for pest or weed control at 15.625 g/ha: 15.625 g ai/ha, evaluated after 13 days (100=total damage to plant; 0=no damage to plant), read-out: Pigweed, Redroot damage rating; for pest or weed control at 62.5 g/ha: 62.5 g ai/ha, read-out: Pigweed, Redroot damage rating (100=total damage to plant; 0=no damage to plant); for pest or weed control at 62.5 g/ha / pest or weed control at 250 g/ha: evaluated after 13 days; for pest or weed control at 250 g/ha: 250 g ai/ha, read-out: damage to plant, Pigweed, Redroot (100=total damage to plant; 0=no damage to plant)
How it was run: (§2)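 Sow in soil; grow 8 d (24/16 °C, 14 h light, 65% humidity); spray 15.625/62.5/250 g/ha in acetone:water 50:50 + 0.5% Tween 20; grow on, water twice daily; score damage 0–100 at 13 d.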

[8] = test system: ivy-leaved morning glory (Ipomoea hederacea); assay: Test G Post-Emergence Protocol; conditions: Ipomoea, post-emergence, 312 h; for pest or weed control at 15.625 g/ha: 15.625 g ai/ha, evaluated after 13 days (100=total damage to plant; 0=no damage to plant), read-out: Morningglory, Ivy-leaved damage rating; for pest or weed control at 62.5 g/ha: 62.5 g ai/ha, read-out: Morningglory, Ivy-leaved damage rating (100=total damage to plant; 0=no damage to plant); for pest or weed control at 62.5 g/ha / pest or weed control at 250 g/ha: evaluated after 13 days; for pest or weed control at 250 g/ha: 250 g ai/ha, read-out: damage to plant, Morningglory, Ivy-leaved (100=total damage to plant; 0=no damage to plant)
How it was run: as §2

corn (Zea mays) [9] = assay: Test G Post-Emergence Protocol; conditions: Zea mays, post-emergence, 312 h; for plant injury at 15.625 g/ha: 15.625 g ai/ha, evaluated after 13 days (100=total damage to plant; 0=no damage to plant), read-out: Corn damage rating; for plant injury at 62.5 g/ha: 62.5 g ai/ha, read-out: Corn damage rating (100=total damage to plant; 0=no damage to plant); for plant injury at 62.5 g/ha / plant injury at 250 g/ha: evaluated after 13 days; for plant injury at 250 g/ha: 250 g ai/ha, read-out: damage to plant, Corn (100=total damage to plant; 0=no damage to plant)
How it was run: as §2

[10] = test system: giant foxtail (Setaria faberi); assay: Test G Post-Emergence Protocol; conditions: Setaria faberi, post-emergence, 312 h; for pest or weed control at 15.625 g/ha: 15.625 g ai/ha, evaluated after 13 days (100=total damage to plant; 0=no damage to plant), read-out: Foxtail, Giant damage rating; for pest or weed control at 62.5 g/ha: 62.5 g ai/ha, read-out: Foxtail, Giant damage rating (100=total damage to plant; 0=no damage to plant); for pest or weed control at 62.5 g/ha / pest or weed control at 250 g/ha: evaluated after 13 days; for pest or weed control at 250 g/ha: 250 g ai/ha, read-out: damage to plant, Foxtail, Giant (100=total damage to plant; 0=no damage to plant)
How it was run: as §2

[11] = test system: velvetleaf (Abutilon theophrasti); assay: Test G Post-Emergence Protocol; conditions: Abutilon theophrasti, post-emergence, 312 h; for pest or weed control at 15.625 g/ha: 15.625 g ai/ha, evaluated after 13 days (100=total damage to plant; 0=no damage to plant), read-out: Velvetleaf damage rating; for pest or weed control at 62.5 g/ha: 62.5 g ai/ha, read-out: Velvetleaf damage rating (100=total damage to plant; 0=no damage to plant); for pest or weed control at 62.5 g/ha / pest or weed control at 250 g/ha: evaluated after 13 days; for pest or weed control at 250 g/ha: 250 g ai/ha, read-out: damage to plant, Velvetleaf (100=total damage to plant; 0=no damage to plant)
How it was run: as §2

[12] = test system: barnyardgrass (Echinochloa crus-galli); assay: Test G Post-Emergence Protocol; conditions: Echinochloa crus-galli, post-emergence, 312 h; for pest or weed control at 15.625 g/ha: 15.625 g ai/ha, evaluated after 13 days (100=total damage to plant; 0=no damage to plant), read-out: Barnyardgrass damage rating; for pest or weed control at 62.5 g/ha: 62.5 g ai/ha, read-out: Barnyardgrass damage rating (100=total damage to plant; 0=no damage to plant); for pest or weed control at 62.5 g/ha / pest or weed control at 250 g/ha: evaluated after 13 days; for pest or weed control at 250 g/ha: 250 g ai/ha, read-out: damage to plant, Barnyardgrass (100=total damage to plant; 0=no damage to plant)
How it was run: as §2

Structure (SMILES)	pest or weed control at 15.625 g/ha [1] [%]	pest or weed control at 62.5 g/ha [1] [%]	pest or weed control at 250 g/ha [1] [%]	pest or weed control at 15.625 g/ha [2] [%]	pest or weed control at 62.5 g/ha [2] [%]	pest or weed control at 250 g/ha [2] [%]	plant injury at 15.625 g/ha (corn (Zea mays) [3]) [%]	plant injury at 62.5 g/ha (corn (Zea mays) [3]) [%]	plant injury at 250 g/ha (corn (Zea mays) [3]) [%]	pest or weed control at 15.625 g/ha [4] [%]	pest or weed control at 62.5 g/ha [4] [%]	pest or weed control at 250 g/ha [4] [%]	pest or weed control at 15.625 g/ha [5] [%]	pest or weed control at 62.5 g/ha [5] [%]	pest or weed control at 250 g/ha [5] [%]	pest or weed control at 15.625 g/ha [6] [%]	pest or weed control at 62.5 g/ha [6] [%]	pest or weed control at 250 g/ha [6] [%]	pest or weed control at 15.625 g/ha [7] [%]	pest or weed control at 62.5 g/ha [7] [%]	also measured
CN1C[C@@H](c2ccc(C(F)(F)F)cc2)[C@H](C(=O)Nc2nnc(C(F)(F)F)o2)C1=O (racemic) [Compound 1604]	0	0	0	0	0	0	0	0	0	0	0	0	0	0	0	0	0	0	0	0	pest or weed control at 250 g/ha [7]: 0%; pest or weed control at 15.625 g/ha [8]: 0%; pest or weed control at 62.5 g/ha [8]: 0%; pest or weed control at 250 g/ha [8]: 0%; plant injury at 15.625 g/ha (corn (Zea mays) [9]): 0%; plant injury at 62.5 g/ha (corn (Zea mays) [9]): 0%; plant injury at 250 g/ha (corn (Zea mays) [9]): 0%; pest or weed control at 15.625 g/ha [10]: 0%; pest or weed control at 62.5 g/ha [10]: 0%; pest or weed control at 250 g/ha [10]: 0%; pest or weed control at 15.625 g/ha [11]: 0%; pest or weed control at 62.5 g/ha [11]: 0%; pest or weed control at 250 g/ha [11]: 0%; pest or weed control at 15.625 g/ha [12]: 0%; pest or weed control at 62.5 g/ha [12]: 0%; pest or weed control at 250 g/ha [12]: 0%
CCc1nnc(NC(=O)[C@@H]2C(=O)N(C)C[C@H]2c2ccc(C(F)(F)F)cc2)s1 (racemic) [Compound 1558]	0	0	10	0	0	0	0	0	0	0	0	0	0	0	0	0	0	10	0	0	pest or weed control at 250 g/ha [7]: 0%; pest or weed control at 15.625 g/ha [8]: 0%; pest or weed control at 62.5 g/ha [8]: 0%; pest or weed control at 250 g/ha [8]: 0%; plant injury at 15.625 g/ha (corn (Zea mays) [9]): 0%; plant injury at 62.5 g/ha (corn (Zea mays) [9]): 0%; plant injury at 250 g/ha (corn (Zea mays) [9]): 0%; pest or weed control at 15.625 g/ha [10]: 0%; pest or weed control at 62.5 g/ha [10]: 0%; pest or weed control at 250 g/ha [10]: 0%; pest or weed control at 15.625 g/ha [11]: 0%; pest or weed control at 62.5 g/ha [11]: 0%; pest or weed control at 250 g/ha [11]: 0%; pest or weed control at 15.625 g/ha [12]: 0%; pest or weed control at 62.5 g/ha [12]: 10%; pest or weed control at 250 g/ha [12]: 20%
CN1C[C@@H](c2ccc(C(F)(F)F)cc2)[C@H](C(=O)Nc2ccc(Cl)nc2)C1=O (racemic) [Compound 1525]	0	0	0	0	0	0	0	0	0	0	10	30	0	0	0	0	0	40	0	0	pest or weed control at 250 g/ha [7]: 0%; pest or weed control at 15.625 g/ha [8]: 0%; pest or weed control at 62.5 g/ha [8]: 0%; pest or weed control at 250 g/ha [8]: 20%; plant injury at 15.625 g/ha (corn (Zea mays) [9]): 0%; plant injury at 62.5 g/ha (corn (Zea mays) [9]): 0%; plant injury at 250 g/ha (corn (Zea mays) [9]): 10%; pest or weed control at 15.625 g/ha [10]: 0%; pest or weed control at 62.5 g/ha [10]: 0%; pest or weed control at 250 g/ha [10]: 10%; pest or weed control at 15.625 g/ha [11]: 0%; pest or weed control at 62.5 g/ha [11]: 0%; pest or weed control at 250 g/ha [11]: 0%; pest or weed control at 15.625 g/ha [12]: 0%; pest or weed control at 62.5 g/ha [12]: 0%; pest or weed control at 250 g/ha [12]: 0%
